Source: patent EP4483866A1, “PHARMACEUTICAL COMPOSITIONS FOR THE TREATMENT OR PREVENTION OF CANCER” (Makrolife Biotech GmbH, priority 2023, dated 2025)

How the values were obtained:
[1] = system: HepG2; details: after 24 hours at 60 µM; cited from earlier work
[2] = system: HepG2, HUVEC, PaCA-2, MDA-MB-231, MCF-7, T24, AsPc-1, Panc-1; experiment: Cell Viability Assay (MTT), tumor cells with MLB007R1 polarized macrophages; assay type: cell-based, human; details: for cell death: 60 µg/ml, all tumor models
From the text: The following tumor models and cell lines have been used to proof the anti-tumoral properties of the derivatives of the invention: • Diagram A: HepG2 (human liver cancer cells), • Diagram B: HUVEC (human umbilical vein endothelial cells, • Diagram C: PaCA-2 (human pancreatic cancer cells), • Diagram D: MDA-MB-231 (highly aggressive, invasive and poorly differentiated triple-negative human breast cancer cells), • Diagram E: MCF-7 (human breast cancer cells), • Diagram F: T24 (human urinary bladder cancer cells), • Diagram G: AsPc-1 (human pancreatic tumor cells) and • Diagram H: Panc-1 (human pancreatic cancer cells).
In the examples, the resveratrol derivative MLB007R1 was applied at concentrations of 0 µg/ml, 10 µg/ml, 20 µg/ml, 40 µg/ml and 60 µg/ml. As a control, an underivatized agent was used at a concentration of 60 µg/ml. The dead cells were measured in percentage after 0, 12, 24 and 36 hours.
Tumor cell lines HUVEC (human umbilical vein endothelial cells), paCA-2 (human pancreatic cancer cells), MDA-MB-231 (highly aggressive, invasive and poorly differentiated triple-negative breast cancer cells), HepG2 (human liver cancer cells), MCF-7 (breast cancer cells), T24 (human urinary bladder cancer cells), AsPc-1 (human pancreatic tumor cells), Panc-1 (human pancreatic cancer cells) were seeded in 96-well plates ([…]) and divided into two groups: the untreated control group and the active compound resveratrol derivative treated group. Cells in the normal group were incubated under normal growth conditions. In the resveratrol derivative (MLB007R1) treated group, the cells were pre-incubated with differentiated and polarized macrophages (5x10^5 cells/well) for 24 hours with different final concentrations of the resveratrol derivative.
Wells were then washed three times with phosphate buffered saline (PBS) and incubated again for 4 hours with […] RPMI 1640 containing 10% fetal bovine serum. The medium was then replaced with fresh medium serially incubated with different concentrations of the lead compound and incubated with the macrophages, and the plates were incubated for 12, 24, and 36 hours. The medium containing the resveratrol derivative polarized macrophages was replaced every 12 h with freshly prepared medium. Wells were then washed three times with PBS and incubated again for 4 h, adding […] of RPMI 1640 and […] of MTT solution (5 mg/mL). After removal of the culture medium, […] of DMSO was added to dissolve the precipitate, and the absorbance at 570 nm of the resulting solutions was measured using a CODA Automated EIA Analyzer (Bio-Rad Laboratories, Hercules, CA, USA).
The cytotoxicity of the resveratrol derivative compound was evaluated on all cancer cell lines using the MTT method.

[3] = system: ovarian cancer cells (cell line A2780); experiment: Viability and apoptosis of ovarian cancer cells with polarized macrophages (interference light microscopy, PI); assay type: cell-based, human
Procedure: Diagrams A and C show as a control the cells after treatment with DMSO.
Diagrams B and D show the cells treated with 60 µg/ml MLB007R1 after 12 h.
The present study explores the response of ovarian cancer cells to MLB007R1. MLB007R1 macrophages inhibited growth and induced death in human ovarian cancer cell lines. In a further course, A2780 cells were co-incubated with MLB007R1 derivative polarized macrophages and treated. MLB007R1 induces cell death and inhibits ovarian cancer cell growth. Treatment of A2780 cells with MLB007R1 induced cell death after 12 hours. Proliferation of A2780 cultures treated with MLB007R1 was analyzed over 12 hours of continuous treatment.
Cells were plated out and 60 µg/ml MLB007R1 treated macrophages were added to the culture medium 12 h after plating out (24 h preincubation period). The percentage of apoptotic cells was determined at the indicated time points by propidium iodide (PI) staining on semipermeabilized cells as previously described. In this assay, apoptotic cells are identified by hypodiploid DNA content resulting from DNA fragmentation. To assess viability, intact cells were harvested, stained with PI, and analyzed for their plasma membrane permeability to PI by flow cytometry. Cell number was determined by interference light microscopy. The ovarian cancer cells (A2780) were incubated with 60µg/ml MLB007R1 concentration treated macrophages. […]

[4] = system: MCF-7, HUVEC, HepG2; experiment: Determination of cell growth and viability (cell count, trypan blue exclusion); assay type: cell-based, human
Procedure: The tumor models utilized in these experiments are as follows: • Diagram A: MCF-7 (breast cancer cells), • Diagram B: HUVEC (human umbilical vein endothelial cells) and • Diagram C: HepG2 (human liver cancer cells).
Cell growth of an untreated and resveratrol derivative (MLB007R1) treated cell culture was compared. Tumor cell lines (MCF-7 (breast cancer cells), HUVEC (human umbilical vein endothelial cells) and HepG2 (human liver cancer cells)) were cultured in RPMI 1640 cell medium and exposed to 60 µg/ml resveratrol derivative polarized macrophages (10 000/ well). Cell growth, cell cycle disruption and apoptosis were assessed using the trypan blue exclusion method.
Cells were seeded in 24-well tissue culture plates (Falcon) at a concentration of 1×10^5 cells/ml and allowed to adhere overnight. […] Cell growth and viability were assessed every 12 hours. Trypsinized cells were manually counted using a hemocytometer, and cell viability was determined using the trypan blue dye exclusion assay.
Initially, cell number was measured after incubation to 200 000 cells per culture.
The kinetics of cell growth on human MCF-7 breast cancer cells were cultured and measured for 12, 24 and 36 hours in culture medium containing the indicated drug-polarized macrophages. […] Tumor cell viability and cell growth were determined using the trypan blue assay and cell count, respectively. […]

[5] = system: MCF-7 cells; experiment: Induction of apoptosis assessed by confocal fluorescence microscopy (PI staining); assay type: cell-based, human; details: for cell death: 12h
Procedure: To confirm the flow cytometry results, the induction of apoptotic cell death by our MLB007R1 compound was examined by confocal fluorescence microscopy. MCF-7 tumor cells were treated with the compound-polarized macrophages (10 000/well) at concentrations of 0, 20, 40, and 60 µg/ml for 12 hours. Induction of apoptotic cell death was accompanied by characteristic ultrastructural changes, such as chromatin condensation, nuclear fragmentation, and collapse of the cell into membrane-bound apoptotic bodies.
Confocal laser scanning microscopy (CLSM). Analysis of apoptosis-like morphological changes was performed on cells grown on coverslips and fixed with 4% paraformaldehyde in PBS (pH 7.4) for 10 minutes at room temperature (RT). After washing in PBS, the samples were stained for nuclear labeling with 2 µg/ml PI and 0.1 mg/ml RNase for 5 minutes at RT. Coverslips were mounted on glass slides in the presence of Glycerol/PBS at a ratio of 4:1 and observed with a LEICA TCS 4D confocal laser scanning microscope equipped with an argon/cripton laser and oil immersion objectives. The excitation and emission wavelengths were 488 and 590 nm, respectively. The images were recorded in pseudocolor.

Row | Structure (SMILES) | decreased HepG2 cell number [1] | effect on tumor cells ([2]; control at 60 µg/ml, compared with resveratrol derivative) | proliferation of A2780 cultures ([3]; 12 hours of continuous treatment) | ovarian cancer cells killed by polarized macrophages ([3]; macrophages incubated in 60µg/ml, 12 h) | number of tumor cells ([4]; 60 µg/ml, after 12 hours, polarized macrophages) | decreased cell number ([4]; after only 12 hours of incubation) | apoptosis induction ([5]; 20 µg/ml (B), 12 hours) | number of apoptotic cells ([5]; 40 (C) and 60 (D) µg/ml, 12 hours) | cell death ([5]; Diagram B: 20 µg/ml MLB007R1 treated macrophages) | cell death ([5]; Diagram C: 20 µg/ml MLB007R1 treated macrophages) | cell death ([5]; Diagram D: 60 µg/ml MLB007R1 treated macrophages) | cell death ([2]; after 12h) | cell death ([2]; after 24 hours) | cell death ([2]; after 36h)
1 | Oc1ccc(C=Cc2cc(O)cc(O)c2)cc1 [resveratrol, 3,4',5-trihydroxy-stilbene, reference compound] | approximately 70% | significantly higher |  |  |  |  |  |  |  |  |  |  |  | 
2 | C=COC(=O)COc1ccc(C=Cc2cc(OCC(=O)OC=C)cc(OCC(=O)OC=C)c2)cc1 [MLB007R1, divinyl 2,2'-((5-(4-(2-oxo-2-(vinyloxy)ethoxy)styryl)-1,3-phenylene)bis(oxy))diacetate] |  |  | No further growth occurred | more than 80% | dramatic decrease | more than 90% | No to little apoptosis induction | increased the number of apoptotic cells | > 50% | > 65% | > 80% | 70-85% | 85-92% | approximately 96%
